Test results published in PubChem BioAssay (NCI).
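Dose response: 5 concentrations. Exposure: 48 h. Format: 96-well plates. Endpoint: linear interpolation; highest concentration if not reached. GI50 marks 50% less growth. TGI: total growth inhibition.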

How the values were obtained:
Test in all cases: growth of human tumour cells (NCI), 48 h
786-0 renal = tested on: 786-0 renal
A498 renal = tested on: A498 renal
A549 NSCLC = tested on: A549 NSCLC
ACHN renal = tested on: ACHN renal
BT-549 breast = tested on: BT-549 breast
CAKI-1 renal = tested on: CAKI-1 renal
CCRF-CEM leukemia = tested on: CCRF-CEM leukemia
COLO 205 colon = tested on: COLO 205 colon
DU-145 prostate = tested on: DU-145 prostate
EKVX NSCLC = tested on: EKVX NSCLC
HCC-2998 colon = tested on: HCC-2998 colon
HCT-116 colon = tested on: HCT-116 colon
HCT-15 colon = tested on: HCT-15 colon
HL-60(TB) leukemia = tested on: HL-60(TB) leukemia
HOP-62 NSCLC = tested on: HOP-62 NSCLC
HOP-92 NSCLC = tested on: HOP-92 NSCLC
HS 578T breast = tested on: HS 578T breast
HT29 colon = tested on: HT29 colon
IGROV1 ovarian = tested on: IGROV1 ovarian
K-562 leukemia = tested on: K-562 leukemia
KM12 colon = tested on: KM12 colon
LOX IMVI melanoma = tested on: LOX IMVI melanoma
M14 melanoma = tested on: M14 melanoma
MALME-3M melanoma = tested on: MALME-3M melanoma
MCF7 breast = tested on: MCF7 breast
MDA-MB-231 breast = tested on: MDA-MB-231 breast
MDA-MB-435 = tested on: MDA-MB-435
MOLT-4 leukemia = tested on: MOLT-4 leukemia
NCI-H226 lung = tested on: NCI-H226 lung
NCI-H23 lung = tested on: NCI-H23 lung
NCI-H460 lung = tested on: NCI-H460 lung
NCI-H522 lung = tested on: NCI-H522 lung
NCI/ADR-RES ovarian = tested on: NCI/ADR-RES ovarian
OVCAR-3 ovarian = tested on: OVCAR-3 ovarian
OVCAR-4 ovarian = tested on: OVCAR-4 ovarian
OVCAR-5 ovarian = tested on: OVCAR-5 ovarian
OVCAR-8 ovarian = tested on: OVCAR-8 ovarian
PC-3 prostate = tested on: PC-3 prostate
RPMI-8226 leukemia = tested on: RPMI-8226 leukemia
RXF 393 renal = tested on: RXF 393 renal
SF-268 CNS = tested on: SF-268 CNS
SF-295 CNS = tested on: SF-295 CNS
SF-539 CNS = tested on: SF-539 CNS
SK-MEL-2 melanoma = tested on: SK-MEL-2 melanoma
SK-MEL-28 melanoma = tested on: SK-MEL-28 melanoma
SK-MEL-5 melanoma = tested on: SK-MEL-5 melanoma
SK-OV-3 ovarian = tested on: SK-OV-3 ovarian
SN12C renal = tested on: SN12C renal
SNB-19 CNS = tested on: SNB-19 CNS
SNB-75 CNS = tested on: SNB-75 CNS
SR leukemia = tested on: SR leukemia
SW-620 colon = tested on: SW-620 colon
T-47D breast = tested on: T-47D breast
TK-10 renal = tested on: TK-10 renal
U251 CNS = tested on: U251 CNS
UACC-257 melanoma = tested on: UACC-257 melanoma
UACC-62 melanoma = tested on: UACC-62 melanoma
UO-31 renal = tested on: UO-31 renal

COc1ccc(/C=N/NC(=O)c2[nH]c3ccc(Br)cc3c2-c2ccccc2)s1 was tested, and the GI50 (786-0 renal) was 0.152 µM, the TGI (786-0 renal) was greater than 100 µM and the GI50 (A498 renal) was 33.8 µM. The TGI (A498 renal) was greater than 100 µM, the GI50 (A549 NSCLC) was 0.16 µM and the TGI (A549 NSCLC) was greater than 100 µM. The GI50 (ACHN renal) was 0.169 µM, the TGI (ACHN renal) was greater than 52.8 µM and the GI50 (BT-549 breast) was 0.0885 µM. For the same molecule, the TGI (BT-549 breast) was 0.367 µM, the GI50 (CAKI-1 renal) was 0.168 µM and the TGI (CAKI-1 renal) was greater than 57.3 µM. The GI50 (CCRF-CEM leukemia) was 0.121 µM, the TGI (CCRF-CEM leukemia) was greater than 100 µM and the GI50 (COLO 205 colon) was 0.195 µM. It also gave a TGI (COLO 205 colon) of 0.375 µM, a GI50 (DU-145 prostate) of 0.135 µM and a TGI (DU-145 prostate) of 45.7 µM. It also gave a GI50 (EKVX NSCLC) of 3.55 µM, a TGI (EKVX NSCLC) greater than 100 µM and a GI50 (HCC-2998 colon) of 0.349 µM. It also gave a TGI (HCC-2998 colon) greater than 71.6 µM, a GI50 (HCT-116 colon) of 0.103 µM and a GI50 (HCT-15 colon) of 0.141 µM. The TGI (HCT-15 colon) was greater than 37 µM, the GI50 (HL-60(TB) leukemia) was 0.0778 µM and the TGI (HL-60(TB) leukemia) was 2.69 µM. The GI50 (HOP-62 NSCLC) was 0.455 µM, the TGI (HOP-62 NSCLC) was greater than 87.8 µM and the GI50 (HOP-92 NSCLC) was 1.28 µM. The TGI (HOP-92 NSCLC) was greater than 100 µM, the GI50 (HS 578T breast) was 1.14 µM and the TGI (HS 578T breast) was greater than 31.4 µM. It also gave a GI50 (HT29 colon) of 0.0846 µM, a TGI (HT29 colon) of 3.29 µM and a GI50 (IGROV1 ovarian) of 0.123 µM. The TGI (IGROV1 ovarian) was 25.2 µM, the GI50 (K-562 leukemia) was 0.113 µM and the TGI (K-562 leukemia) was greater than 100 µM. It also gave a GI50 (KM12 colon) of 0.301 µM, a TGI (KM12 colon) greater than 60.5 µM and a GI50 (LOX IMVI melanoma) of 0.0384 µM. The TGI (LOX IMVI melanoma) was greater than 100 µM, the GI50 (M14 melanoma) was 0.142 µM and the TGI (M14 melanoma) was greater than 100 µM. For the same molecule, the GI50 (MALME-3M melanoma) was 0.148 µM, the TGI (MALME-3M melanoma) was greater than 70.3 µM and the GI50 (MCF7 breast) was 0.11 µM. It also gave a TGI (MCF7 breast) of 14.4 µM, a GI50 (MDA-MB-231 breast) of 0.336 µM and a TGI (MDA-MB-231 breast) of 15.7 µM. For the same molecule, the GI50 (MDA-MB-435) was 0.0656 µM, the TGI (MDA-MB-435) was 0.153 µM and the GI50 (MOLT-4 leukemia) was 0.113 µM. It also gave a TGI (MOLT-4 leukemia) greater than 100 µM, a GI50 (NCI-H226 lung) of 0.115 µM and a TGI (NCI-H226 lung) of 30.2 µM. The GI50 (NCI-H23 lung) was 0.124 µM, the TGI (NCI-H23 lung) was greater than 47.7 µM and the GI50 (NCI-H460 lung) was 0.246 µM. It also gave a TGI (NCI-H460 lung) of 3.63 µM, a GI50 (NCI-H522 lung) of 0.0193 µM and a TGI (NCI-H522 lung) of 0.0544 µM. For the same molecule, the GI50 (NCI/ADR-RES ovarian) was 0.0398 µM, the TGI (NCI/ADR-RES ovarian) was 4.36 µM and the GI50 (OVCAR-3 ovarian) was 0.249 µM. It also gave a TGI (OVCAR-3 ovarian) of 0.823 µM, a GI50 (OVCAR-4 ovarian) of 0.224 µM and a TGI (OVCAR-4 ovarian) of 57.6 µM. It also gave a GI50 (OVCAR-5 ovarian) of 0.136 µM, a TGI (OVCAR-5 ovarian) greater than 100 µM and a GI50 (OVCAR-8 ovarian) of 0.0593 µM. For the same molecule, the GI50 (PC-3 prostate) was 0.263 µM, the TGI (PC-3 prostate) was greater than 89.4 µM and the GI50 (RPMI-8226 leukemia) was 0.118 µM. The TGI (RPMI-8226 leukemia) was greater than 100 µM, the GI50 (RXF 393 renal) was 0.299 µM and the TGI (RXF 393 renal) was 0.91 µM. The GI50 (SF-268 CNS) was 0.532 µM, the TGI (SF-268 CNS) was greater than 100 µM and the GI50 (SF-295 CNS) was 0.106 µM. It also gave a TGI (SF-295 CNS) of 15.1 µM, a GI50 (SF-539 CNS) of 0.0724 µM and a TGI (SF-539 CNS) of 0.206 µM. It also gave a GI50 (SK-MEL-2 melanoma) of 0.0935 µM, a TGI (SK-MEL-2 melanoma) of 36.4 µM and a GI50 (SK-MEL-28 melanoma) of 0.745 µM. For the same molecule, the TGI (SK-MEL-28 melanoma) was greater than 100 µM, the GI50 (SK-MEL-5 melanoma) was 0.101 µM and the TGI (SK-MEL-5 melanoma) was 0.394 µM. It also gave a GI50 (SK-OV-3 ovarian) of 0.219 µM, a TGI (SK-OV-3 ovarian) of 99.4 µM and a GI50 (SN12C renal) of 0.116 µM. It also gave a TGI (SN12C renal) greater than 42.1 µM, a GI50 (SNB-19 CNS) of 0.275 µM and a TGI (SNB-19 CNS) greater than 95.2 µM. For the same molecule, the GI50 (SNB-75 CNS) was 0.148 µM, the TGI (SNB-75 CNS) was 20 µM and the GI50 (SR leukemia) was 0.102 µM. It also gave a TGI (SR leukemia) greater than 100 µM, a GI50 (SW-620 colon) of 0.147 µM and a TGI (SW-620 colon) greater than 100 µM. The GI50 (T-47D breast) was 7.1 µM, the TGI (T-47D breast) was greater than 100 µM and the GI50 (TK-10 renal) was 3.72 µM. For the same molecule, the TGI (TK-10 renal) was greater than 75.1 µM, the GI50 (U251 CNS) was 0.259 µM and the TGI (U251 CNS) was greater than 100 µM. It also gave a GI50 (UACC-257 melanoma) of 0.283 µM, a TGI (UACC-257 melanoma) greater than 100 µM and a GI50 (UACC-62 melanoma) of 0.146 µM. For the same molecule, the TGI (UACC-62 melanoma) was greater than 51.5 µM, the GI50 (UO-31 renal) was 0.188 µM and the TGI (UO-31 renal) was greater than 100 µM.
